Several values for one entry are separate records, joined by “and”; a condition that tells them apart may be missing. Equal values may be shown once. Read-outs that look alike come from different tables or passages of the source.
How the values were obtained:
liver = assay type: in vivo, Male Sprague-Dawley rats; details: for Periportal fibrosis (Masson's trichrome): 162 mg/kg/day, five-day oral administration;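 on Cytoplasmic Alteration: Severity grades from None 0% through Minimal Mild Moderate to Marked over 80% tissue affected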;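 on Inflammation: Severity grades from None 0% through Minimal Mild Moderate to Marked over 80% tissue affected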;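 on Vacuolation: Severity grades from None 0% through Minimal Mild Moderate to Marked over 80% tissue affected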
[1] = assay type: in vivo, Male Sprague-Dawley rats
[2] = test system: 67 genes on the fibrosis gene panel; assay: Multiplexed fibrosis gene panel (QuantiGene 2.0 Plex / Bioplex) on liver RNA
Procedure: mRNA is isolated and purified from lysed tissue biopsy specimens. The target mRNA is incubated with beads conjugated to capture probes (each probe is an oligonucleotides specific for one of the genes in the panel). The target is hybridized to the probe by a capture extender-capture probe interaction. Specific mRNA targets hybridize overnight to the respective beads. The signal is amplified by incubating mRNA-capture probe pairs by affixing an amplifier affixed to a biotinylated label probe. Streptavidin-conjugated phycoerythrin (SAPE) is bound to the biotinylated probe to amplify the signal. The signal is detected and quantified by Bioplex suspension array instrumentation, which measures the SAPE fluorescence signal proportional to the amount of mRNA transcripts captured by the bead.
Candidate genes identified by co-expression modules and pathway/network approaches were fabricated into a custom gene panel using a commercial source (the QuantiGene 2.0 Plex assay, Affymetrix, Santa Clara, Calif.). A total of 71 genes plus 3 housekeeping genes were selected. Using 150 ng RNA input, samples were processed following manufacturer's instructions for purified RNA with use of the HandHeld Magnetic Plate Washer. Plates were read immediately following the final wash using the BioPlex 200 instrument (BioRad, Hercules, Calif.). The following parameters were set on the BioPlex instrument: sample size=100 μL; DD Gate=5,000-25,000; Timeout=45 sec; Bead Event/Bead Region=100.
For each sample, the average signal intensity was determined as recommended by the manufacturer. Duplicates were averaged. The average background signal for each gene was subtracted. Assay limit of detection was determined by adding three standard deviations of assay background signals to the average intensity of the background control wells. All intensities lower than the limit of detection for each probe was set to one unit above the probe's limit of detection. Probes with all intensities below the assay limit of detection were removed from the final analysis. The test gene signal was divided by the average intensities of the three normalization genes (Gapdh, Hprt1, Ppib). For each test gene, the fold change was calculated by dividing the normalized value for the treated samples by the normalized value of the vehicle-treated controls. Fold changes were plotted as log2 fold change. Gene expression data were imported into Partek Genomics Suite 6.0 (Partek, Inc., St. Louis, Mo.). Principal component analysis was used for multivariate interpretation to determine sources of variation across sample groups (Joliffe I T, Morgan B J. Principal component analysis and exploratory factor analysis. Statistical methods in medical research 1992; 1(1):69-95). Differentially expressed genes were determined by analysis of variance (ANOVA) with contrasts, setting the ANOVA factors as toxicant and the histopathological endpoint of fibrosis (any score >0). ANOVA variables were fibrosis score 0 (none) vs. score of >0 (minimal, mild, moderate, and marked). For hierarchical biclustering, differentially expressed genes were standardized by setting the genes expressed to a mean of zero and scaling to a standard deviation of one. Euclidean geometry was used to cluster row and column dissimilarity using a method of average linkage.
Chemical-dose groups were down-selected based on histopathology to conform to the 96-well assay format of the multiplexed panel of presumptive fibrosis genes. Three of the four dose groups were evaluated for the fibrogenic chemicals allyl alcohol and 4,4′-methylenedianiline. A single dose was selected with group-matched vehicle controls for each of the remaining chemicals. […] The highest dose of bromobenzene was selected because the vacuolation pathology was only observed at this dose.
Isolated liver RNA was incubated with microbead-bound capture probes specific for the 71 presumptive fibrogenic genes and three housekeeping normalization genes.

[3] = 4,4′-MDA 22 mg/kg, animals 89-92
[4] = 4,4′-MDA 59.7 mg/kg, animals 93-96
[5] = 4,4′-MDA 162 mg/kg, animals 97-100

Nc1ccc(Cc2ccc(N)cc2)cc1 [4,4′-methylenedianiline]
Periportal fibrosis (Masson's trichrome) (liver): periportal fibrosis
Periportal fibrosis (Masson's trichrome) (liver; listed as 4,4′-methylenediani line): Perioportal fibrosis was confirmed
Bile Duct Hyperplasia and Fibroplasia (liver; [3]): 0
Inflammation (liver; [3]): 0
Necrosis (liver; [3]): 0
Vacuolation (liver; [3]): 0
Bile Duct Hyperplasia and Fibroplasia (liver; [4]): 2 and 3
Inflammation (liver; [4]): 2 and 3
Vacuolation (liver; [4]): 0
Bile Duct Hyperplasia and Fibroplasia (liver; [5]): 3 and 2
Cytoplasmic Alteration (liver; [5]): 2 and 3
Inflammation (liver; [5]): 2
Necrosis (liver; [5]): 2 and 1
Vacuolation (liver; [5]): 0
Combined histopathological scores as percent of animals with pathology (liver; across dose groups, five days (figure legend)): dose-dependent increase in severe pathology
Fibrosis histopathology (liver; low-dose (carbon tetrachloride: all doses)): without fibrosis
Degree of fibrosis (liver; oral gavage five days, across doses): dose-dependent increase in the degree of fibrosis
Histopathology: bile duct hyperplasia, fibrosis, necrosis (liver; oral gavage five days, high doses): caused bile duct hyperplasia comorbid with fibrosis and necrosis
Body weight gain over the five experimental dosing days ([1]; dose groups): decrease in body weight gain
Body weight change over the five-day exposure interval ([1]; highest dose(s)): gained less weight over the five-day exposure interval than their low-dose counterparts
Anxa2 differential expression [2, 4]: 2.439 and 1.755 and 2.514
Arpc1b differential expression [2, 4]: 1.147 and 1.069 and 1.373
C1qb differential expression [2, 4]: 0.893 and 0.937 and 1.469
CD53 differential expression [2, 4]: 0.950 and 1.045 and 1.560
Capg differential expression [2, 4]: 1.169 and 1.723 and 2.026
Ccl2 differential expression [2, 4]: 1.483 and 1.928 and 1.705
Ctgf differential expression [2, 4]: 1.026 and 0.691 and 1.013
Cxcl16 differential expression [2, 4]: 1.969 and 1.196 and 2.174
Cyba differential expression [2, 4]: 1.216 and 1.165 and 2.041
Dsc2 differential expression [2, 4]: 0.258 and 0.244 and 0.474
Fam102b differential expression [2, 4]: 0.577 and 0.939 and 0.845
Fam105a differential expression [2, 4]: 1.236 and 1.186 and 1.900
Fxyd5 differential expression [2, 4]: 1.025 and 0.916 and 1.613
Gpnmb differential expression [2, 4]: 1.876 and 1.911 and 3.162
Itga1 differential expression [2, 4]: 1.064 and 1.196 and 1.743
Itgb2 differential expression [2, 4]: 0.709 and 1.138 and 1.216
Lame2 differential expression [2, 4]: 1.485 and 0.755 and 1.416
Lbp differential expression [2, 4]: 2.023 and 1.422 and 2.026
Lgals3 differential expression [2, 4]: 1.931 and 2.085 and 2.575
Pkm2 differential expression [2, 4]: 1.314 and 1.491 and 2.389
Plau differential expression [2, 4]: 0.941 and 0.957 and 1.332
RT1-DMa differential expression [2, 4]: 1.381 and 2.022 and 2.522 and 1.938
RT1-Da differential expression [2, 4]: 1.431 and 2.375 and 2.640
Serpine1 differential expression [2, 4]: 1.151 and 1.305 and 1.475
TagIn2 differential expression [2, 4]: 1.404 and 1.169 and 1.971
Timp1 differential expression [2, 4]: 1.871 and 1.153 and 2.099
RT1-DMa differential expression [2, 5]: 1.970 and 1.713 and 2.157 and 1.814
Hierarchical biclustering of log2 fold-changes in panel gene expression ([2]; liver, 67 genes): clustered together
